Experimental data from the PolyMetriX glass transition set.
± gives the standard deviation of the reports.

| glass transition temperature [°C] | SMILES |
| --- | --- |
| 307.50 | *c1ccc(Oc2ccc(-c3c(-c4ccccc4)nc4ccc(-c5ccc6nc(-c7ccccc7)c(*)c(-c7ccccc7)c6c5)cc4c3-c3ccccc3)cc2)cc1 (repeat unit) |
| 111.00 | *CC(*)c1ccc(/C(Cc2ccccc2)=N/O)cc1 (repeat unit) |
| 61.00 | *OC(=O)OCC(OC)C(COC(=O)OC1COC2C(*)COC12)OC (repeat unit) |
| 40.00 | *CC(*)(C)C(=O)OCCCCCCCOc1ccc2cc(C(=O)Oc3ccccc3)ccc2c1 (repeat unit) |
| 23.00 | */C=C/C(C*)COCC(=O)OCCCCCCCCOc1ccc(/C=C/c2ccc([N+](=O)[O-])cc2)cc1 (repeat unit) |
| 159.00 | *Oc1ccc(-c2ccc(Oc3ccc(C(=O)c4cccc(C(=O)c5ccc(*)cc5)c4)cc3)cc2)cc1 (repeat unit) |
| 274.00 | *c1ccc([Si](c2ccccc2)(c2ccccc2)c2ccc(-c3nnc(-c4ccc(-c5nnc(*)o5)cc4)o3)cc2)cc1 (repeat unit) |
| 285.00 | *Nc1ccc(Br)cc1-c1ccc(NC(=O)c2ccc(C(*)=O)cc2)cc1 (repeat unit) |
| 120.00 | *CC(O)COc1ccc(C(=O)c2ccc(OCC(O)COc3ccc(C(C)(C)c4ccc(O*)cc4)cc3)cc2)cc1 (repeat unit) |
| 101.00 | *Oc1ccc(Oc2ccc(/C=N/CC/N=C/c3ccc(*)cc3)cc2)cc1 (repeat unit) |
| 219.00 | *c1c(C)cc(C(c2cccnc2)c2cc(C)c(N3C(=O)CC(Nc4ccc(Cc5ccc(NC6CC(=O)N(*)C6=O)cc5)cc4)C3=O)c(C)c2)cc1C (repeat unit) |
| 41.00 | *Oc1ccc(OC(=O)c2cc(OCCCCCCCCOCC3CCCN3c3ccc([N+](=O)[O-])cc3)c(C(*)=O)cc2OCCCCCCCCOCC2CCCN2c2ccc([N+](=O)[O-])cc2)cc1 (repeat unit) |
| 215.00 | *c1cc(C(c2ccc(OCCN(C)c3ccc(/C=C/C4=CC(=C(C#N)C#N)CC(C)(C)C4)cc3)c(N3C(=O)c4ccc(Oc5ccc6c(c5)C(=O)N(*)C6=O)cc4C3=O)c2)(C(F)(F)F)C(F)(F)F)ccc1OCCN(C)c1ccc(/C=C/C2=CC(=C(C#N)C#N)CC(C)(C)C2)cc1 (repeat unit) |
| 205.00 | *c1ccc(Oc2ccc(C(c3ccc(Oc4ccc(-c5ncc(*)o5)cc4C(F)(F)F)cc3)(C(F)(F)F)C(F)(F)F)cc2)c(C(F)(F)F)c1 (repeat unit) |
| 174.00 | *Oc1ccc(/N=C(\c2ccccc2)c2ccc(Oc3ccc(-c4ccc(Oc5ccc(/C(=N/c6ccc(*)cc6)c6ccccc6)cc5)cc4)cc3)cc2)cc1 (repeat unit) |
| -10.00 | *c1ccc(-c2ccc([Si](*)(CCCC)CCCC)s2)s1 (repeat unit) |
| 143.00 | *c1ccc(C(=O)Oc2ccc(C(C)(C)c3ccc(OC(=O)c4ccc(N5C(=O)CC(SCCOCCSC6CC(=O)N(*)C6=O)C5=O)cc4)cc3)cc2)cc1 (repeat unit) |

| glass transition temperature [°C] | SMILES |
| --- | --- |
| 321.00 | *Nc1cccc(NC(=O)c2cc(NC(=O)c3ccncc3)cc(C(*)=O)c2)c1 (repeat unit) |
| 286.00 | *c1ccc2c(c1)C(=O)N(c1ccc(C(=O)Nc3ccc(Oc4cccc(Oc5ccc(NC(=O)c6ccc(N7C(=O)c8ccc(C(*)(C(F)(F)F)C(F)(F)F)cc8C7=O)cc6)cc5)c4)cc3)cc1)C2=O (repeat unit) |
| 21.00 | */C=C/C(C(=O)OCc1ccccc1)C(*)C(=O)OCc1ccccc1 (repeat unit) |
| 48.00 | *CC(*)(C)C(=O)OCCCCCOc1ccc2cc(C(=O)Oc3ccccc3)ccc2c1 (repeat unit) |
| 302.00 | *C(=O)c1ccc2c(c1)C(=O)N(c1ccc(Cc3ccc(Cc4ccc(Cc5ccc(N6C(=O)c7ccc(*)cc7C6=O)cc5)cc4)cc3)cc1)C2=O (repeat unit) |
| 244.00 | *c1ccc(-c2ccc(-n3c(-c4ccc(Oc5ccc(C(=O)c6cccc(C(=O)c7ccc(Oc8ccc(-c9nc%10ccccc%10n9*)cc8)cc7)c6)cc5)cc4)nc4ccccc43)cc2)cc1 (repeat unit) |
| 413.00 | *c1ccc(Oc2ccc(N3C(=O)c4c(c(-c5ccccc5)c(-c5ccc(-c6c(-c7ccccc7)c7c(c(-c8ccccc8)c6-c6ccccc6)C(=O)N(*)C7=O)cc5)c(-c5ccccc5)c4-c4ccccc4)C3=O)cc2)cc1 (repeat unit) |
| 23.00 | *Oc1ccc(CC(NC(=O)Cc2ccc(OC(=O)CCCCCCCCC(*)=O)cc2)C(=O)OCCCCCC)cc1 (repeat unit) |
| 179.00 | *Oc1cccc2cc(OC(=O)c3ccc(Oc4ccc(C(*)=O)cc4)cc3)ccc12 (repeat unit) |
| 340.00 ± 14 | *c1ccc(S(=O)(=O)c2ccc(N3C(=O)c4ccc(-c5ccc6c(c5)C(=O)N(*)C6=O)cc4C3=O)cc2)cc1 (repeat unit) |
| 418.00 | *c1c(C)cc(C)c(N2C(=O)c3ccc(S(=O)(=O)c4ccc5c(c4)C(=O)N(*)C5=O)cc3C2=O)c1C (repeat unit) |
| 197.00 | *Oc1ccc(N(c2ccc(OC)cc2)c2ccc3ccc(N(c4ccc(*)cc4)c4ccc(OC)cc4)cc3c2)cc1 (repeat unit) |
| 225.00 | *Oc1ccc(NC(=O)c2cc(NC(=O)CCCN3C(=O)c4ccccc4C3=O)cc(C(=O)Nc3ccc(*)cc3)c2)cc1 (repeat unit) |
| 45.30 | *O[Si](*)(C)CCCOc1ccc(C(=O)Oc2ccc(OC(=O)CCCCC(=O)OC3CC(C)CCC3C(C)C)cc2)cc1 (repeat unit) |
| 166.00 | *Nc1cc(NC(=O)c2cc(NC(=O)C(C(C)CC)N3C(=O)c4ccccc4C3=O)cc(C(*)=O)c2)ccc1C (repeat unit) |
| 141.00 | *CCCCCCN1C(=O)c2ccc(-c3ccc(-c4ccc5c(c4)C(=O)N(*)C5=O)cc3)cc2C1=O (repeat unit) |
| 272.50 ± 33 | *C(=O)c1ccc2c(c1)C(=O)N(c1c(CC)cc(Cc3cc(CC)c(N4C(=O)c5ccc(*)cc5C4=O)c(CC)c3)cc1CC)C2=O (repeat unit) |

| SMILES | glass transition temperature [°C] |
| --- | --- |
| *Oc1ccc(NC(=O)c2ccc(P(=O)(c3ccccc3)c3ccc(C(=O)Nc4ccc(Oc5ccc(P(=O)(c6ccccc6)c6ccc(*)cc6)cc5)cc4)cc3)cc2)cc1 (repeat unit) | 225.00 |
| *CC(*)(C)C(=O)OC(C)C (repeat unit) [Poly(isopropyl methacrylate)] | 83.92 ± 1.5 |
| *CC(*)OC(=O)CC1CCCCC1 (repeat unit) | 25.00 |
| *CCSSSSCCO* (repeat unit) | -40.00 |
| *C(=O)OCCN(CCOC(=O)c1ccc2c(c1)C(=O)N(c1c(C)cc(Cc3cc(C)c(N4C(=O)c5ccc(*)cc5C4=O)c(C)c3)cc1C)C2=O)c1ccc(/N=N/c2ccc([N+](=O)[O-])cc2[N+](=O)[O-])cc1 (repeat unit) | 176.00 |
| *CCCCNC(=O)CCCCC(=O)N* (repeat unit) | 58.00 |
| *Oc1c(C)cc(*)cc1C(C)CCCC (repeat unit) | 85.00 |
| *C(F)(F)C(*)(F)OC(F)C(F)F (repeat unit) | 35.00 |
| *N=P(N=P(N=S(*)(=O)NCC)(NCC)NCC)(NCC)NCC (repeat unit) | 4.00 |
